Experimental data from publication PMC10174618, “Monoterpenoid aryl hydrocarbon receptor allosteric antagonists protect against ultraviolet skin damage in female mice” (Nature Communications, 2023).

Key:
Experiment in all cases: biochemical
Design in all cases: KINOMEscan scanMAX active site-directed competition binding assay, percent of control, 468 kinases
Settings in all cases: competition binding, percent of control
PHKG1 = PHKG1 (Homo sapiens, UniProt Q16816)
Outline: (§1)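 KINOMEscan active site-directed competition binding assay against 468 human kinases with 100 μM S-carvone. Binding expressed as % of control, with 35% of control as the inhibition threshold.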

STK39 = STK39 (Homo sapiens, UniProt Q9UEW8)
Outline: as §1

MTOR = MTOR (Homo sapiens, UniProt P42345)
Outline: as §1

PFTAIRE2 = molecular target: T1, PFTAIRE2 (Homo sapiens, UniProt Q96Q40)
T1 construct: gene CDK15
T1 sequence (Q96Q40 whole entry): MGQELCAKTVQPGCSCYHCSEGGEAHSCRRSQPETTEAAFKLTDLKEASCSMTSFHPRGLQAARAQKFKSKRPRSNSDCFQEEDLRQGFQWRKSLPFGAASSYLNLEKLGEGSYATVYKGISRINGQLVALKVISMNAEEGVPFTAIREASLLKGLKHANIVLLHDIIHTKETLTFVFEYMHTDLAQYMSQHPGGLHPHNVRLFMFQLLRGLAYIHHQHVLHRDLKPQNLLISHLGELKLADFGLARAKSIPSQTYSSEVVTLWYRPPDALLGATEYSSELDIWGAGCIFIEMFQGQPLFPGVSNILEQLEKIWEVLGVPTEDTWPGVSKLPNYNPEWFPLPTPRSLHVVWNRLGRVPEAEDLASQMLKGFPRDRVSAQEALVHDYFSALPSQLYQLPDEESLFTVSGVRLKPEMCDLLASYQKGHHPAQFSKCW
Outline: as §1

FLT3(ITD,D835V) = FLT3(ITD,D835V) (Homo sapiens, UniProt P36888, D835V/ITD)
Outline: as §1

PLK1 = PLK1 (Homo sapiens, UniProt P53350)
Outline: as §1

[1] = molecular target: T2, RPS6KA4(Kin.Dom.2-C-terminal) (Homo sapiens, UniProt O75676)
T2 construct: Kin.Dom.2-C-terminal
Outline: as §1

NDR2 = molecular target: T3, NDR2 (Homo sapiens, UniProt Q9Y2H1)
T3 construct: gene STK38L
T3 sequence (Q9Y2H1 whole entry): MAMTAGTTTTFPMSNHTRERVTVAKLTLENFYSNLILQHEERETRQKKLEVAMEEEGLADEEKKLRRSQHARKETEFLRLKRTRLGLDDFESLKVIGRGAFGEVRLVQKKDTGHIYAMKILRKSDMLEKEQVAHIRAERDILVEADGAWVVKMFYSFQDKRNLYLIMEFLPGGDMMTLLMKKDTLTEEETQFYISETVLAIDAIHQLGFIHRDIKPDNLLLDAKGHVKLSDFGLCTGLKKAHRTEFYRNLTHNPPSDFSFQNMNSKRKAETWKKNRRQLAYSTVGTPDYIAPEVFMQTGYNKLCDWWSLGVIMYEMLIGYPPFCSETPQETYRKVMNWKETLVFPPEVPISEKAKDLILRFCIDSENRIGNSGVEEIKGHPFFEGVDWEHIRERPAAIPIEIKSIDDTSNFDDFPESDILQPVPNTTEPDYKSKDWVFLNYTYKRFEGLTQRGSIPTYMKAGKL
Outline: as §1

PIK3CA = PIK3CA (Homo sapiens, UniProt P42336)
Sequence of PIK3CA (P42336 whole entry): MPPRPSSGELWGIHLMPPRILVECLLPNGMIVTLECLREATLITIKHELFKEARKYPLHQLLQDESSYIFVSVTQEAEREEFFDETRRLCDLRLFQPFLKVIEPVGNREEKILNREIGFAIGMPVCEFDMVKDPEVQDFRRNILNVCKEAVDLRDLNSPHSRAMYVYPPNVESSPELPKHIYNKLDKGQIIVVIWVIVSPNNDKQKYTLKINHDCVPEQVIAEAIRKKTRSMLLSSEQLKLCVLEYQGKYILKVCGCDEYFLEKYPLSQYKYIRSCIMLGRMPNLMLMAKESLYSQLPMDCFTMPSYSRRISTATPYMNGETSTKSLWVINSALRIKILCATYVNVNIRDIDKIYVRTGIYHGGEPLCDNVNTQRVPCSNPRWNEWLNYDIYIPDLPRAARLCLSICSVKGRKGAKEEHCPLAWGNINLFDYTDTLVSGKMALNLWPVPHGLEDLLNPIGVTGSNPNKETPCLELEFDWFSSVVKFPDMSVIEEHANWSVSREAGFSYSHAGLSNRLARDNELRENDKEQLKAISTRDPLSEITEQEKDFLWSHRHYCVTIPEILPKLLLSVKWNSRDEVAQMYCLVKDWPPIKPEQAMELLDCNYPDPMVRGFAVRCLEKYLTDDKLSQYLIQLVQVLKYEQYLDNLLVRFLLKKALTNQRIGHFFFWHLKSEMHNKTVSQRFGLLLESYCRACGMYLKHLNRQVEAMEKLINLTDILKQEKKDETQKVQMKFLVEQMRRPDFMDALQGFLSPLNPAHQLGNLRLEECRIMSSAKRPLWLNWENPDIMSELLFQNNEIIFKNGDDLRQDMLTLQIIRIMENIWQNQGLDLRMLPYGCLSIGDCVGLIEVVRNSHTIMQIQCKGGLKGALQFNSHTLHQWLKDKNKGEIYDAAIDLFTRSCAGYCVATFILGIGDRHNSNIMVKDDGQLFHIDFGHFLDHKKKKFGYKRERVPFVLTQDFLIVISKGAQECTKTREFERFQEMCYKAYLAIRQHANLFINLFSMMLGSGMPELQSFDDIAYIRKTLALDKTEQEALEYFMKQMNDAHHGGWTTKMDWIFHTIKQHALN
Outline: as §1

BIKE = molecular target: T4, BIKE (Homo sapiens, UniProt Q9NSY1)
T4 construct: gene BMP2K
Outline: as §1

CAMK2B = CAMK2B (Homo sapiens, UniProt Q13554)
Sequence of CAMK2B (Q13554 whole entry): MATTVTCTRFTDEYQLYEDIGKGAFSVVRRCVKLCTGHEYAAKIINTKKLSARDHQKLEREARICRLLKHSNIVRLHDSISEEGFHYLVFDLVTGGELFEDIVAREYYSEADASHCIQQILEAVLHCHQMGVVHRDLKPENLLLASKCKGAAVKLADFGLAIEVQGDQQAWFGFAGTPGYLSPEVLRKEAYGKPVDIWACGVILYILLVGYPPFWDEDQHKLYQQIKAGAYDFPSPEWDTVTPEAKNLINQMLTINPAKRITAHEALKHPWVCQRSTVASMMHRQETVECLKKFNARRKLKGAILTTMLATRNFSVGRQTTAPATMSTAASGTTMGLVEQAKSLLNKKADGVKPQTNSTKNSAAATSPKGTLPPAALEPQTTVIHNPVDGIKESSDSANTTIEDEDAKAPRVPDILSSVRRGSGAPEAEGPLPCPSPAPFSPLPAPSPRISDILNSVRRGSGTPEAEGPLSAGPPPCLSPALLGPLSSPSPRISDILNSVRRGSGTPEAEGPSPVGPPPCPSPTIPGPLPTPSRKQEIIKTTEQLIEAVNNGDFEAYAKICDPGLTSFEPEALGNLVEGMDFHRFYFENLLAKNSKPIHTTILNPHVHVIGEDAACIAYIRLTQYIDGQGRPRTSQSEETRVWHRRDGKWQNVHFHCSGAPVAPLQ
Outline: as §1

FLT3(R834Q) = FLT3(R834Q) (Homo sapiens, UniProt P36888, R834Q)
Outline: as §1

PRKCQ = PRKCQ (Homo sapiens, UniProt Q04759)
Sequence of PRKCQ (Q04759 whole entry): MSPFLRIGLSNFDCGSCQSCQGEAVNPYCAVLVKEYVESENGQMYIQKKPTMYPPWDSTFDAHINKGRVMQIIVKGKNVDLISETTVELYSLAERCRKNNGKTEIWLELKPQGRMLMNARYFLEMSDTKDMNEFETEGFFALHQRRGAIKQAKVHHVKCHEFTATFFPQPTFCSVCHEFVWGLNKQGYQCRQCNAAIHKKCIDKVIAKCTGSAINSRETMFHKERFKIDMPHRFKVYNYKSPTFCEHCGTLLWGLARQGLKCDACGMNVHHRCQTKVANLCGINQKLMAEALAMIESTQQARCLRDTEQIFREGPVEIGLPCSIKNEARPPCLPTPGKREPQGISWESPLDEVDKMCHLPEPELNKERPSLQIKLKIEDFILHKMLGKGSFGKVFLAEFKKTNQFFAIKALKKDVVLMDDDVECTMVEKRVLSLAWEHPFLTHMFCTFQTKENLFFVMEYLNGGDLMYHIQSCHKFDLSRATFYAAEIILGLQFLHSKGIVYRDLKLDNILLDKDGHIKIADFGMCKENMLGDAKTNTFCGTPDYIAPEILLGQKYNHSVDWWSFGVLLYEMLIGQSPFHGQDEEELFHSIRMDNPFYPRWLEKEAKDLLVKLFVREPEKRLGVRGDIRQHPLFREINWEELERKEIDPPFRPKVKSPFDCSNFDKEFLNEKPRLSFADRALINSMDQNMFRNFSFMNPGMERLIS
Outline: as §1

[2] = molecular target: T5, ABL1(F317L)-phosphorylated (Homo sapiens, UniProt P00519, F317L)
T5 construct: phosphorylated
Outline: as §1

GAK = GAK (Homo sapiens, UniProt O14976)
Outline: as §1

BMPR2 = BMPR2 (Homo sapiens, UniProt Q13873)
Outline: as §1

LZK = molecular target: T6, LZK (Homo sapiens, UniProt O43283)
T6 construct: gene MAP3K13
Outline: as §1

MET = MET (Homo sapiens, UniProt P08581)
Outline: as §1

ALK(L1196M) = ALK(L1196M) (Homo sapiens, UniProt Q9UM73, L1196M)
Outline: as §1

EGFR(L858R,T790M) = EGFR(L858R,T790M) (Homo sapiens, UniProt P00533, L858R/T790M)
Sequence of EGFR(L858R,T790M) (P00533 whole entry T790M/L858R): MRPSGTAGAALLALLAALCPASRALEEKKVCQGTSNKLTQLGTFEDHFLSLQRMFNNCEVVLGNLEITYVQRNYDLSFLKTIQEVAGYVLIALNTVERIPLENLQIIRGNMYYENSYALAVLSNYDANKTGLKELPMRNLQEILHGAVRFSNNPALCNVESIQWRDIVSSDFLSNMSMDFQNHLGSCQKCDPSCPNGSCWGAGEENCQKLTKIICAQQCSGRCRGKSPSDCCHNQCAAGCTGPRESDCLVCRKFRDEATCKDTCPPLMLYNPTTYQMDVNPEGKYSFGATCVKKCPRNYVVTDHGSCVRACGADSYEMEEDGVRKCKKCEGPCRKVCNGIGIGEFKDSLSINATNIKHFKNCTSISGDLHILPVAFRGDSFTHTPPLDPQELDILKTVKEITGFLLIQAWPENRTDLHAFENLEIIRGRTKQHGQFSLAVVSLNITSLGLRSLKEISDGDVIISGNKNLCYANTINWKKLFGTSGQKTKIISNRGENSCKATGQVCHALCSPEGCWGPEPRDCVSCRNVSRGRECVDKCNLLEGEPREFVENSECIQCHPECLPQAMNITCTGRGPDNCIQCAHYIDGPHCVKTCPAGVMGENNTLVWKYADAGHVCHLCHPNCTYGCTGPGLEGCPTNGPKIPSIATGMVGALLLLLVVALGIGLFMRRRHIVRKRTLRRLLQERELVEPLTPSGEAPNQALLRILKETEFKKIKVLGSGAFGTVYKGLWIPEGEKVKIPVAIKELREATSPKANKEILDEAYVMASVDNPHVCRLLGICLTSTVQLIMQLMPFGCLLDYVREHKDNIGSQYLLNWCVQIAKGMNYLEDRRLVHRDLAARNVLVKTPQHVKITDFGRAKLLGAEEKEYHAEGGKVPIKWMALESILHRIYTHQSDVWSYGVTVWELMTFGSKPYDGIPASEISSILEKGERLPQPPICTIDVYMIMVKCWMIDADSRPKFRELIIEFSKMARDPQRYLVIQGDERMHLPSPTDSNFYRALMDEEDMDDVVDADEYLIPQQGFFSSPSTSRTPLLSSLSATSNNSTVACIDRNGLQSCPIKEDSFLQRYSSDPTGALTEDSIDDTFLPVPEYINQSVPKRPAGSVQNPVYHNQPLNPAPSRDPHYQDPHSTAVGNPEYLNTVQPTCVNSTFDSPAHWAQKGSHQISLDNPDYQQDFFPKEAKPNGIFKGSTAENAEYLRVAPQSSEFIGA
Outline: as §1

SYK = SYK (Homo sapiens, UniProt P43405)
Outline: as §1

Sequence of PHKG1 (Q16816 whole entry): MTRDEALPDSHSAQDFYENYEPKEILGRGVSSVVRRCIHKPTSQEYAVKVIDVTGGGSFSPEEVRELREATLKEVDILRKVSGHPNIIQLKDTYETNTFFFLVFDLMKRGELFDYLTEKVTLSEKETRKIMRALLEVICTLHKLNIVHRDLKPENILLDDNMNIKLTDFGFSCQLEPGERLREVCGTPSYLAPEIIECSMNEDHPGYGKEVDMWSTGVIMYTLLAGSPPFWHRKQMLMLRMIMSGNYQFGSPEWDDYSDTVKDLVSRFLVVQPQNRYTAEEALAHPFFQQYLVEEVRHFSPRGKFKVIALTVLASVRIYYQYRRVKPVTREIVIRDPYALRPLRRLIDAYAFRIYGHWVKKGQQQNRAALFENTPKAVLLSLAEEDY

C=C(C)[C@H]1CC=C(C)C(=O)C1 [S-carvone]
remaining binding at 100 µM (PHKG1): 100%
remaining binding at 100 µM (STK39): 80%
remaining binding at 100 µM (MTOR): 78%
remaining binding at 100 µM (PFTAIRE2): 87%
remaining binding at 100 µM (FLT3(ITD,D835V)): 85%
remaining binding at 100 µM (PLK1): 68%
remaining binding at 100 µM [1]: 75%
remaining binding at 100 µM (NDR2): 83%
remaining binding at 100 µM (PIK3CA): 79%
remaining binding at 100 µM (BIKE): 100%
remaining binding at 100 µM (CAMK2B): 86%
remaining binding at 100 µM (FLT3(R834Q)): 83%
remaining binding at 100 µM (PRKCQ): 75%
remaining binding at 100 µM [2]: 93%
remaining binding at 100 µM (GAK): 83%
remaining binding at 100 µM (BMPR2): 79%
remaining binding at 100 µM (LZK): 78%
remaining binding at 100 µM (MET): 90%
remaining binding at 100 µM (ALK(L1196M)): 71%
remaining binding at 100 µM (EGFR(L858R,T790M)): 60%
remaining binding at 100 µM (SYK): 75%
